From publication PMC7552967, “Anti-Melanoma Activities of Artemisone and Prenylated Amino-Artemisinins in Combination With Known Anticancer Drugs” (Frontiers in Pharmacology, 2020)

Legend:
[1] = test system: UACC62 melanoma cells; assay: Sulforhodamine B (SRB) growth inhibition assay, UACC62; type: cell-based; conditions: Homo sapiens, UACC-62, mean ± SD
Description: (§1) The human cell lines TK10 (human kidney adenocarcinoma), UACC62 (human melanoma) and MCF7 (human breast adenocarcinoma) were obtained from the National Cancer Institute (NCI) as part of a panel widely studied for drug screening and molecular target identification. Melanoma (A375) and human embryonic kidney (HEK293) were acquired from the American Type Culture Collection; ATCC® CRL-1619™ and ATCC® CRL-1573™ respectively. The nontumorigenic human immortalized keratinocyte (HaCaT) cells were a kind donation by the School of Anatomical Sciences, Faculty of Health Sciences, University of the Witwatersrand, South Africa. […]
(§2) The growth inhibitory effects of the compounds were tested in the 3-cell line panel consisting of TK10 (renal), UACC62 (melanoma) and MCF7 (breast) cancer cells by Sulforhodamine B (SRB) assay. In addition, activity was also evaluated against HEK293 cells with the 3-(4,5-dimethylthiazol-2-yl)-2,5-diphenyl tetrazolium bromide (MTT) assay ([Mosmann, 1983]). […] The results were expressed as half maximal inhibitory concentrations (IC50) as described before ([Lewies et al., 2018]). […] After incubation, cell viability was determined using a microplate reader (BioTek®, Vermont, USA) at an excitation wavelength of 560 nm and emission wavelength of 630 nm with DMSO measured as a blank. […] Using the MTT assay data, IC50 values were calculated using GraphPad Prism 8. […]

[2] = test system: TK10 renal cancer cells; assay: Sulforhodamine B (SRB) growth inhibition assay, TK10; type: cell-based; conditions: Homo sapiens, TK-10, mean ± SD
Description: as §1, §2

| SMILES | IC50 [1] | IC50 [2] |
| --- | --- | --- |
| C[C@H]1[C@H](N2CCS(=O)(=O)CC2)O[C@@H]2O[C@@]3(C)CC[C@H]4[C@H](C)CC[C@@H]1[C@@]24OO3 [Artemisone 4, artemisone] | 32700 ± 3470 nM | > 100000 nM |
| CC(C)=CCC/C(C)=C/CC/C(C)=C/CN1CCN([C@@H]2O[C@@H]3O[C@@]4(C)CC[C@H]5[C@H](C)CC[C@@H]([C@H]2C)[C@@]35OO4)CC1 [Farnesylpiperazine-DHA 7, farnesylpiperazine-DHA] | 2150 ± 790 nM | 3000 ± 670 nM |
